For test [1], the target named is T1, ALK2 (Mus musculus, UniProt P37172).
T1 construct: The C2C12 cell line was selected for the measurement of ALK2 activity using BMP6 as the agonist; host or cells: C2C12
T1 sequence (P37172 21-509): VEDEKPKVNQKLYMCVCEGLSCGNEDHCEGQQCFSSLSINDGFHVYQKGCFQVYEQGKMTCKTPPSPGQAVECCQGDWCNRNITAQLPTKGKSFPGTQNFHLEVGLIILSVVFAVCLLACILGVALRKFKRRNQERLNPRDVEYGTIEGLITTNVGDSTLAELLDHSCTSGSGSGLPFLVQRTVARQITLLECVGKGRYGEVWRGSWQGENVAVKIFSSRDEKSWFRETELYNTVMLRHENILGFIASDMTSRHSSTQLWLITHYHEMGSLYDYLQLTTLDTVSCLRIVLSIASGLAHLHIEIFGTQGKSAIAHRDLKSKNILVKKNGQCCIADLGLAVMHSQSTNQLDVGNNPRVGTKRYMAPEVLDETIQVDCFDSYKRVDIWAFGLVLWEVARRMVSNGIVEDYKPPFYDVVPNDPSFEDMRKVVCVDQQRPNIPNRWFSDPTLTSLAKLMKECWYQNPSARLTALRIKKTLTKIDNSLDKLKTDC
Briefly: HTRF pSMAD1 cell-based ALK2 assay (C2C12 cells, BMP6 as agonist). A digest of the protocol: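 Phospho-SMAD1 HTRF readout, detection incubated overnight at room temperature. Before that: starved cells in 0.1% FBS for 4 h, 30 min compound pretreatment, then 30 min agonist, BMP6 on C2C12 or BMP9 on BAOEC.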

The nature of test [2]: Cell-based assay, TGFb1 (Cell IC50).
The next test has as its target ALK1 (Homo sapiens, UniProt P37023). Briefly: TR-FRET enzymatic ALK kinase assay, ALK1.
In test [3] the target is T2, ALK2 (Homo sapiens, UniProt Q04771).
T2 sequence (Q04771 21-509): T1 sequence (P37172 21-509) with V1M, Q10P, I121L, E162D, S310P
The test is described as follows: TR-FRET enzymatic ALK kinase assay, ALK2.
Experimental: (§1) Briefly, the ALKs enzymatic assay was initiated by dispense 2.5 μl enzyme in 1× kinase reaction buffer. The assay plate was then added with compounds followed by incubation at room temperature for 10 minutes. Then 2.5 μl/well substrate was added.

A further test addresses ALK3 (Homo sapiens, UniProt P36894). Briefly: TR-FRET enzymatic ALK kinase assay, ALK3.
A further test deals with ALK6 (Homo sapiens, UniProt O00238). Briefly: TR-FRET enzymatic ALK kinase assay, ALK6.
A further test concerns the target T3, ALK4 (Homo sapiens, UniProt P36896).
T3 sequence (P36896 24-505): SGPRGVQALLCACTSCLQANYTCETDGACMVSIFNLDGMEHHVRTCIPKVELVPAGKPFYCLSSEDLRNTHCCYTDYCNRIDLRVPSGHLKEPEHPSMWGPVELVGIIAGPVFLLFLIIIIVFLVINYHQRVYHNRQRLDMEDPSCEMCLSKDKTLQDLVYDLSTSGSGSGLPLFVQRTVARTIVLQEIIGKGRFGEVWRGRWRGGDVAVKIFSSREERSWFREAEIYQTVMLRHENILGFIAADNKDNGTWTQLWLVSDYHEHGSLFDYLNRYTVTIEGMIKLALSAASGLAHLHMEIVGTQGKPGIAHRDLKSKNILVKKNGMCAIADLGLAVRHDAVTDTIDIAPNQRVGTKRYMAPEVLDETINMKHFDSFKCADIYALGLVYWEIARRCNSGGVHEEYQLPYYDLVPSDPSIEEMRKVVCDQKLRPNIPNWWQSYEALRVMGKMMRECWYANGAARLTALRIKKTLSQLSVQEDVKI
The test is described as follows: TR-FRET enzymatic ALK kinase assay, ALK4.

In a further test the target is T4, ALK5 (Homo sapiens, UniProt P36897).
T4 sequence (P36897 34-503): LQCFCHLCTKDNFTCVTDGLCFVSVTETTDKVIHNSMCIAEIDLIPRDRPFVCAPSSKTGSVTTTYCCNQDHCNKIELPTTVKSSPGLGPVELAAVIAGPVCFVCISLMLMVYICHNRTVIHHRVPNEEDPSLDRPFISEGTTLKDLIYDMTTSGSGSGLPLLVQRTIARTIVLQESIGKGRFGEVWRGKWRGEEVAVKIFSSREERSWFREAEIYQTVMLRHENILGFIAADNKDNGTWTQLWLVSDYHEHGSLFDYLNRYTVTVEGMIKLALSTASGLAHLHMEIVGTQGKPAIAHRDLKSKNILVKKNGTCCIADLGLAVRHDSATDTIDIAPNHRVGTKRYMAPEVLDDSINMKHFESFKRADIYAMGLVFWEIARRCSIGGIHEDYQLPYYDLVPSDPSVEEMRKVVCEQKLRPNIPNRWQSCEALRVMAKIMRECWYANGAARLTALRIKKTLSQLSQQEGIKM
The test is described as follows: TR-FRET enzymatic ALK kinase assay, ALK5.

Setting [4] is: cell-based assay, BMP6, read-out: Cell IC50 BMP6.
Where [5] appears, read: HTRF assay, BMP6 as agonist, C2C12 cells, read-out: BMP6 HTRF.

Numbering of substitutions follows the chain as printed. Where two headings read alike, the source gives them in different places. Where only a bound is given, the exact number is not on record here.

Chain of ALK1 (P37023 22-503): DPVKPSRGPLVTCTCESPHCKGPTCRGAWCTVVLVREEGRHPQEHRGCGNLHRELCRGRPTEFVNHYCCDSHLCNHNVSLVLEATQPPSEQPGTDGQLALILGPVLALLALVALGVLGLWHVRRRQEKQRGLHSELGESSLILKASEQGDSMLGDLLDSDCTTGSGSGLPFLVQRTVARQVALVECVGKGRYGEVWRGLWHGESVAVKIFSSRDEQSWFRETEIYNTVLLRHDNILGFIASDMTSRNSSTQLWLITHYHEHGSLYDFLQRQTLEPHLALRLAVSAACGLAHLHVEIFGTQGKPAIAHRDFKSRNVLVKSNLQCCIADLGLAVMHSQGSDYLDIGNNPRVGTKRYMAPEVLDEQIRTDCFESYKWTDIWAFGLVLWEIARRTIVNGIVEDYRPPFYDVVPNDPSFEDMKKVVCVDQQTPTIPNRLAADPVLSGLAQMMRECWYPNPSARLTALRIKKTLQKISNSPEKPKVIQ
Chain of ALK6 (O00238 14-502): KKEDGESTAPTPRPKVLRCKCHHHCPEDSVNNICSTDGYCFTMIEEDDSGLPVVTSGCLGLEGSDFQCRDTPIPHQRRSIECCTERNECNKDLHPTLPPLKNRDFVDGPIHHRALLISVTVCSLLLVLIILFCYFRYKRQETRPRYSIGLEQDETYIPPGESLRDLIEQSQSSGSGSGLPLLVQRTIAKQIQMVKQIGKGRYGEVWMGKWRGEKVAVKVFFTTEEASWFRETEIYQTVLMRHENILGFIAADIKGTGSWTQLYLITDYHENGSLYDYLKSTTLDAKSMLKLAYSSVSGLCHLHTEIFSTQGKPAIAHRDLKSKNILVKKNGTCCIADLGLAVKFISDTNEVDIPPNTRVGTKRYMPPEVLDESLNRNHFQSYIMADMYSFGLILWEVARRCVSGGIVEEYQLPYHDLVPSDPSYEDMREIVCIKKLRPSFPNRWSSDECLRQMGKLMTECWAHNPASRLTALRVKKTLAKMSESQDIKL
Chain of ALK3 (P36894 24-532): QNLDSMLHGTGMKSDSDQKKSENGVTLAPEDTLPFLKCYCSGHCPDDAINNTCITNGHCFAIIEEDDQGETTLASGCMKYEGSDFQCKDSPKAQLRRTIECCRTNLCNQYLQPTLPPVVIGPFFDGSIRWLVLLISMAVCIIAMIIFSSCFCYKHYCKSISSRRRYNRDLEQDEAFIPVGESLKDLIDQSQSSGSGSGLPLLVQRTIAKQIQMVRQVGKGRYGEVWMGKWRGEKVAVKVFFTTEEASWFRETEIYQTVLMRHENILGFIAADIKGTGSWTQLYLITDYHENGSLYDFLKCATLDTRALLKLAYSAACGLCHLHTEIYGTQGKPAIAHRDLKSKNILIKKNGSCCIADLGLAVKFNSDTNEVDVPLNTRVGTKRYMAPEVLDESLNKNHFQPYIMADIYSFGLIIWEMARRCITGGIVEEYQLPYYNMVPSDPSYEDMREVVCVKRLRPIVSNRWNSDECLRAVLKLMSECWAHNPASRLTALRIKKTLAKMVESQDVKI
Experimental for ALK1: as §1
Experimental for ALK3: as §1
Experimental for ALK4: as §1
Experimental for ALK5: Six ALK kinase enzyme assays were developed for determination of compound activities on ALK1, ALK2, ALK3, ALK4, ALK5 and ALK6.
as §1
Experimental for ALK6: as §1

Turning to `O=C(O)c1ccc(-c2cnn3cc(-c4ccc(N5CCNCC5)cc4)cnc23)c2ccccc12` [Compound 1, 4-(6-(4-(piperazin-1-yl)phenyl)pyrazolo[1,5-a]pyrimidin-3-yl)-1-naphthoic acid], the IC50 on ALK2 [1] (setting [4]) stood at 8.66 µM; in test [2], 100 µM; at ALK1, 0.186 µM; against ALK2 [3] it was 0.037 µM; against ALK3, 0.984 µM; against ALK6, 1.74 µM.
Consider `CNC(=O)c1ccc(-c2cnn3cc(-c4ccc(N5CCNCC5)cc4)cnc23)c2ccccc12` [Compound 3, N-methyl-4-(6-(4-(piperazin-1-yl)phenyl)pyrazolo[1,5-a]pyrimidin-3-yl)-1-naphthamide], for which the IC50 on ALK2 [1] (setting [4]) turned out to be 3.19 µM; in test [2] it was 15.3 µM; against ALK1, 19.6 µM; against ALK2 [3], 1.76 µM; against ALK3, 18.2 µM.
Take `CN(C)C(=O)c1ccc(-c2cnn3cc(-c4ccc(N5CCNCC5)cc4)cnc23)c2ccccc12` [Compound 4, N,N-dimethyl-4-(6-(4-(piperazin-1-yl)phenyl)pyrazolo[1,5-a]pyrimidin-3-yl)-1-naphthamide]: the IC50 on ALK2 [1] (setting [4]) was found to be 0.593 µM; in test [2] it was 10.6 µM; on ALK1, 15.4 µM; at ALK2 [3], 2.83 µM; on ALK6 it was 76.4 µM.
`O=C(O)c1cccc2c(-c3cnn4cc(-c5ccc(N6CCNCC6)cc5)cnc34)cccc12` [Compound 5, 5-(6-(4-(piperazin-1-yl)phenyl)pyrazolo[1,5-a]pyrimidin-3-yl)-1-naphthoic acid]: the IC50 on ALK2 [1] (setting [4]) worked out at 100 µM; in test [2], 100 µM; at ALK1, 0.045 µM; at ALK2 [3], 0.01 µM; on ALK3, 0.017 µM; against ALK6 it was 0.017 µM.
As to `CNC(=O)c1cccc2c(-c3cnn4cc(-c5ccc(N6CCNCC6)cc5)cnc34)cccc12` [Compound 7, N-methyl-5-(6-(4-(piperazin-1-yl)phenyl)pyrazolo[1,5-a]pyrimidin-3-yl)-1-naphthamide], the IC50 was found to be 0.283 µM on ALK2 [1] (setting [4]); 2.93 µM in test [2]; 1.59 µM at ALK1; 0.226 µM on ALK2 [3]; 0.598 µM on ALK3; 30.9 µM on ALK4. At ALK6, the IC50 stood at 0.334 µM.
In the case of `CN(C)C(=O)c1cccc2c(-c3cnn4cc(-c5ccc(N6CCNCC6)cc5)cnc34)cccc12` [Compound 8, N,N-dimethyl-5-(6-(4-(piperazin-1-yl)phenyl)pyrazolo[1,5-a]pyrimidin-3-yl)-1-naphthamide], the IC50 at ALK2 [1] (setting [4]) stood at 2.07 µM; in test [2], 5.54 µM; against ALK1, 8.08 µM; against ALK2 [3] it was 6.56 µM; on ALK3 it was 10.8 µM; against ALK6, 20.7 µM.
`N/C(=N/O)c1ccc(-c2cnn3cc(-c4ccc(N5CCNCC5)cc4)cnc23)cc1` [Compound 13, N′-hydroxy-4-(6-(4-(piperazin-1-yl)phenyl)pyrazolo[1,5-a]pyrimidin-3-yl)benzimidamide]: the IC50 turned out to be 0.38 µM on ALK2 [1] (setting [4]); 6.82 µM in test [2]; 0.276 µM against ALK1; 0.038 µM against ALK2 [3]; 0.88 µM against ALK3.
Regarding `N=C(N)c1ccc(-c2cnn3cc(-c4ccc(N5CCNCC5)cc4)cnc23)cc1` [Compound 14, 4-(6-(4-(piperazin-1-yl)phenyl)pyrazolo[1,5-a]pyrimidin-3-yl)benzimidamide], the IC50 at ALK2 [1] (setting [4]) stood at 4.2 µM; in test [2], 44.1 µM; against ALK1, 3.06 µM; on ALK2 [3], 0.916 µM; on ALK3, 17.6 µM; on ALK5, 15.6 µM. In addition, the IC50 against ALK6 is 16.9 µM.
Turning to `N=C(N)c1ccc(-c2cnn3cc(-c4ccc(N5CCNCC5)cc4)cnc23)c2ccccc12` [Compound 16, 4-(6-(4-(piperazin-1-yl)phenyl)pyrazolo[1,5-a]pyrimidin-3-yl)-1-naphthimidamide], the IC50 on ALK2 [1] (setting [4]) was determined as 0.89 µM; in test [2], 13.5 µM; at ALK1, 0.405 µM; at ALK2 [3], 0.084 µM; against ALK3 it was 4.93 µM; on ALK4, 73.9 µM. For the same compound, the IC50 against ALK6 was found to be 74.8 µM.
For the compound `C[C@@H]1CNC[C@H](C)N1c1ccc(-c2cnc3c(-c4ccc(CN)c5ccccc45)cnn3c2)cc1` [Compound 23, (4-(6-(4-((2R,6S)-2,6-dimethylpiperazin-1-yl)phenyl)pyrazolo[1,5-a]pyrimidin-3-yl)naphthalen-1-yl)methanamine], the IC50 at ALK2 [1] (setting [4]) was 0.033 µM; in test [2], 10.8 µM; on ALK1, 9.6 µM; at ALK2 [3] it was 5.31 µM.
With `c1cc(-c2nn[nH]n2)cc(-c2cnn3cc(-c4ccc(CCN5CCCCC5)cc4)cnc23)c1` [Compound 89, 3-(3-(2H-tetrazol-5-yl)phenyl)-6-(4-(2-(piperidin-1-yl)ethyl)phenyl)pyrazolo[1,5-a]pyrimidine], the IC50 in test [2] was 12.4 µM; against ALK1 it was 7.1 µM; against ALK2 [3], 0.014 µM; against ALK3 it was above 10 µM; against ALK4 it was above 10 µM; against ALK5, above 10 µM. Further, on ALK6, the IC50 is above 10 µM.
Consider `CC(O)c1cccc(-c2cnn3cc(-c4ccc(CN5CCCC5)cc4)cnc23)c1` (stereo not shown) [Compound 165, 1-(3-(6-(4-(pyrrolidin-1-ylmethyl)phenyl)pyrazolo[1,5-a]pyrimidin-3-yl)phenyl)ethanol], for which the IC50 on ALK2 [1] (setting [5]) is 0.24 µM; at ALK1, 0.032 µM; at ALK2 [3] it was 0.003 µM; on ALK3, 0.14 µM; against ALK4 it was 1.3 µM; against ALK5, 5.9 µM. The compound further registered an IC50 at ALK6 of 3.1 µM.
Regarding `CC(O)c1cccc(-c2cnn3cc(-c4ccc(OC5(CN6CCCC6)CC5)cc4)cnc23)c1` (stereo not shown) [Compound 167, 1-(3-(6-(4-(1-(pyrrolidin-1-ylmethyl)cyclopropoxy)phenyl)pyrazolo[1,5-a]pyrimidin-3-yl)phenyl)ethanol], the IC50 at ALK2 [1] (setting [5]) was 0.37 µM; against ALK1, 0.6 µM; against ALK2 [3], 0.049 µM; at ALK3, 1.1 µM; against ALK4 it was above 10 µM; at ALK5, above 10 µM. The compound further registered an IC50 against ALK6 of 9.3 µM.

Source of the values: patent publication US10513521B2, “Compositions and methods for inhibiting BMP” (The Brigham and Women's Hospital, Inc., priority 2014, dated 2019).
